This is an account of results in patent publication US7786108B2, “Compounds and method for treating dyslipidemia” (Eli Lilly and Company, priority 2004, dated 2010).

Each structure is given as a SMILES string.

The subject of the assay is transgenic mice that express both human CETP and human apolipoprotein A-1. Briefly: In vivo assay of plasma lipids: elevation of HDL cholesterol. The conditions noted are these: Mus musculus; single oral dose 30 mg/kg; HDL cholesterol in serum at 8 hr after administration; relative to a control; read-out: % HDL cholesterol increase. The text has this: Additional serum lipids can be analyzed by enzymatic methods.

Consider `Cc1cc2c(cc1C(F)(F)F)N(Cc1ccc(O)c(C(=O)O)c1)CCC[C@@H]2N(Cc1cc(C(F)(F)F)cc(C(F)(F)F)c1)c1nnn(C)n1` [Example 141, (S)-5-{5-[(3,5-Bis-trifluoromethyl-benzyl)-(2-methyl-2H-tetrazol-5-yl)-amino]-7-methyl-8-trifluoromethyl-2,3,4,5-tetrahydro-benzo[b]azepin-1-ylmethyl}-2-hydroxy-benzoic acid], for which the change in vivo at 30 mg/kg was 74%.

On to `Cc1cc2c(cc1C(F)(F)F)N(CC1CC1)CCC[C@@H]2N(Cc1cc(Cl)cc(C(F)(F)F)c1)c1nnn(C)n1` [Example 196, (S)-(3-Chloro-5-trifluoromethyl-benzyl)-(1-cyclopropylmethyl-7-methyl-8-trifluoromethyl-2,3,4,5-tetrahydro-1H-benzo[b]azepin-5-yl)-(2-methyl-2H-tetrazol-5-yl)-amine], for which the change in vivo at 30 mg/kg is 126%.

With `Cc1c2c(cc3c1N(Cc1ccc(C(=O)O)cc1)CCC[C@@H]3N(Cc1cc(C(F)(F)F)cc(C(F)(F)F)c1)c1nnn(C)n1)COC2` [Example 166, (S)-4-{9-[(3,5-Bis-trifluoromethyl-benzyl)-(2-methyl-2H-tetrazol-5-yl)-amino]-4-methyl-1,3,6,7,8,9-hexahydro-2-oxa-5-aza-cyclohepta[f]inden-5-ylmethyl}-benzoic acid], the change in vivo at 30 mg/kg was determined as 102%.

As to `Cc1cc2c(cc1C(F)(F)F)N(Cc1ccc(C#N)cc1)CCC[C@@H]2N(Cc1cc(C(F)(F)F)cc(C(F)(F)F)c1)c1nnn(C)n1` [Example 192, (S)-4-{5-[(3,5-bis-trifluoromethyl-benzyl)-(2-methyl-2H-tetrazol-5-yl)-amino]-7-methyl-8-trifluoromethyl-2,3,4,5-tetrahydro-benzo[b]azepin-1-ylmethyl}-benzonitrile], the change in vivo at 30 mg/kg came out at 102%.

For `Cc1cc2c(cc1C(F)(F)F)N(C1CCC(C(=O)O)CC1)CCC[C@@H]2N(Cc1cc(C(F)(F)F)cc(C(F)(F)F)c1)c1nnn(C)n1` (stereo partly drawn) [Example 175, (S)-4-{5-[(3,5-Bis-trifluoromethyl-benzyl)-(2-methyl-2H-tetrazol-5-yl)-amino]-7-methyl-8-trifluoromethyl-2,3,4,5-tetrahydro-benzo[b]azepin-1-yl}-cyclohexanecarboxylic acid], the change in vivo at 30 mg/kg worked out at 100%.

`Cn1nnc(N(Cc2cc(C(F)(F)F)cc(C(F)(F)F)c2)[C@H]2CCCN(CC3CCCC3)c3cc4c(cc32)COC4)n1` [Example 73, (S)-(3,5-Bis-trifluoromethyl-benzyl)-(5-cyclopentylmethyl-3,5,6,7,8,9-hexahydro-1H-2-oxa-5-aza-cyclohepta[f]inden-9-yl)-(2-methyl-2H-tetrazol-5-yl)-amine]: the change in vivo at 30 mg/kg was 374%.

Regarding `Cc1cc2c(cc1C(F)(F)F)N(CC1CCCC1)CCC[C@@H]2N(Cc1cc(C(F)(F)F)cc(C(F)(F)F)c1)c1nnn(C)n1` [Example 3, (S)-(3,5-bistrifluoromethylbenzyl)-(1-cyclopentylmethyl-7-methyl-8-trifluoromethyl-2,3,4,5-tetrahydro-1H-benzo[b]azepin-5-yl)-(2-methyl-2H-tetrazol-5-yl)amine], the change in vivo at 30 mg/kg came out at 71%.

For `Cc1cc2c(c(C)c1C(F)(F)F)N(CC1CC1)CCC[C@@H]2N(Cc1cc(Cl)cc(C(F)(F)F)c1)c1nnn(C)n1` [Example 200, (S)-(3-Chloro-5-trifluoromethyl-benzyl)-(1-cyclopropylmethyl-7,9-dimethyl-8-trifluoromethyl-2,3,4,5-tetrahydro-1H-benzo[b]azepin-5-yl)-(2-methyl-2H-tetrazol-5-yl)-amine], the change in vivo at 30 mg/kg was 153%.

Regarding `Cc1cc2c(cc1C(F)(F)F)N(C(=O)OC1CCCC1)CCC[C@@H]2N(Cc1cc(C(F)(F)F)cc(C(F)(F)F)c1)c1nnn(C)n1` [Example 20, (S)-5-[(3,5-Bis-trifluoromethyl-benzyl)-(2-methyl-2H-tetrazol-5-yl)-amino]-7-methyl-8-trifluoromethyl-2,3,4,5-tetrahydro-benzo[b]azepine-1-carboxylic acid cyclopentyl ester], the change in vivo at 30 mg/kg was found to be 72%.

Turning to `Cc1cc2c(cc1C(F)(F)F)N(C(=O)OC(C)(C)C)CCC[C@@H]2N(Cc1cc(Cl)cc(C(F)(F)F)c1)c1nnn(C)n1` [Example 185, (S)-5-[(3-Chloro-5-trifluoromethyl-benzyl)-(2-methyl-2H-tetrazol-5-yl)-amino]-7-methyl-8-trifluoromethyl-2,3,4,5-tetrahydro-benzo[b]azepine-1-carboxylic acid tert-butyl ester], the change in vivo at 30 mg/kg was found to be 155%.

`Cc1cc2c(cc1C(F)(F)F)N(Cc1nccs1)CCC[C@@H]2N(Cc1cc(C(F)(F)F)cc(C(F)(F)F)c1)c1nnn(CCN)n1` [Example 129, (S)-[2-(2-Amino-ethyl)-2H-tetrazol-5-yl]-(3,5-bis-trifluoromethyl-benzyl)-(7-methyl-1-thiazol-2-ylmethyl-8-trifluoromethyl-2,3,4,5-tetrahydro-1H-benzo[b]azepin-5-yl)-amine]: the change in vivo at 30 mg/kg was found to be 92%.

Consider `Cc1cc2c(cc1C(F)(F)F)N(C(=O)OC(C)(C)C)CCC[C@@H]2N(Cc1cc(C(F)(F)F)cc(C(F)(F)F)c1)c1nnn(C)n1` [Example 17, (S)-5-[(3,5-Bis-trifluoromethyl-benzyl)-(2-methyl-2H-tetrazol-5-yl)-amino]-7-methyl-8-trifluoromethyl-2,3,4,5-tetrahydro-benzo[b]azepine-1-carboxylic acid tert-butyl ester], for which the change in vivo at 30 mg/kg worked out at 73%.

For `Cc1cc2c(c(C)c1C(F)(F)F)N(C[C@H]1CC[C@H](CC(=O)O)CC1)CCC[C@@H]2N(Cc1cc(C(F)(F)F)cc(C(F)(F)F)c1)c1nnn(C)n1` [Example 153, (S)-(4-{5-[(3,5-Bis-trifluoromethyl-benzyl)-(2-methyl-2H-tetrazol-5-yl)-amino]-7,9-dimethyl-8-trifluoromethyl-2,3,4,5-tetrahydro-benzo[b]azepin-1-ylmethyl}-cyclohexyl)-acetic acid], the change in vivo at 30 mg/kg is 165%.

As to `Cc1c2c(cc3c1N(CC1CCCC1)CCC[C@@H]3N(Cc1cc(C(F)(F)F)cc(C(F)(F)F)c1)c1nnn(C)n1)COC2` [Example 170, (S)-(3,5-Bis-trifluoromethyl-benzyl)-(5-cyclopentylmethyl-4-methyl-3,5,6,7,8,9-hexahydro-1H-2-oxa-5-aza-cyclohepta[f]inden-9-yl)-(2-methyl-2H-tetrazol-5-yl)-amine], the change in vivo at 30 mg/kg worked out at 95%.

`Cc1cc2c(cc1C(F)(F)F)N(CCC(C)(C)CC(=O)O)CCC[C@@H]2N(Cc1cc(C(F)(F)F)cc(C(F)(F)F)c1)c1nnn(C)n1` [Example 32, (S)-5-{5-[(3,5-Bis-trifluoromethyl-benzyl)-(2-methyl-2H-tetrazol-5-yl)-amino]-7-methyl-8-trifluoromethyl-2,3,4,5-tetrahydro-benzo[b]azepin-1-yl}-3,3-dimethyl-pentanoic acid]: the change in vivo at 30 mg/kg is 128%.

Consider `Cc1cc2c(cc1C(F)(F)F)N(Cc1ccncc1)CCC[C@@H]2N(Cc1cc(Cl)cc(Cl)c1)c1nnn(C)n1` [Example 187, (S)-(3,5-Dichloro-benzyl)-(7-methyl-1-pyridin-4-ylmethyl-8-trifluoromethyl-2,3,4,5-tetrahydro-1H-benzo[b]azepin-5-yl)-(2-methyl-2H-tetrazol-5-yl)-amine], for which the change in vivo at 30 mg/kg was determined as 124%.

As for `Cc1cc(N(Cc2cc(C(F)(F)F)cc(C(F)(F)F)c2)[C@H]2CCCN(C[C@H]3CC[C@H](CC(=O)O)CC3)c3cc(C(F)(F)F)c(C)cc32)on1` [Example 94, (4-{5-[(3,5-Bis-trifluoromethyl-benzyl)-(3-methyl-isoxazol-5-yl)-amino]-7-methyl-8-trifluoromethyl-2,3,4,5-tetrahydro-benzo[b]azepin-1-ylmethyl}-cyclohexyl)-acetic acid], the change in vivo at 30 mg/kg was determined as 154%.

For the compound `Cc1cc2c(c(C)c1C(F)(F)F)N(CCC(C)(C)CC(=O)O)CCC[C@@H]2N(Cc1cc(C(F)(F)F)cc(C(F)(F)F)c1)c1nnn(C)n1` [Example 154, (S)-5-{5-[(3,5-Bis-trifluoromethyl-benzyl)-(2-methyl-2H-tetrazol-5-yl)-amino]-7,9-dimethyl-8-trifluoromethyl-2,3,4,5-tetrahydro-benzo[b]azepin-1-yl}-3,3-dimethyl-pentanoic acid], the change in vivo at 30 mg/kg was determined as 99%.

`CCC(OC(=O)N1CCCC(N(Cc2cc(C(F)(F)F)cc(C(F)(F)F)c2)c2nnn(C)n2)c2cc(C)c(C(F)(F)F)cc21)C(C)C` (racemic) [Example 25, (+/−)-5-[(3,5-Bis-trifluoromethyl-benzyl)-(2-methyl-2H-tetrazol-5-yl)-amino]-7-methyl-8-trifluoromethyl-2,3,4,5-tetrahydro-benzo[b]azepine-1-carboxylic acid 1-ethyl-2-methyl-propyl ester]: the change in vivo at 30 mg/kg came to 142%.

Regarding `Cn1nnc(N(Cc2cc(C(F)(F)F)cc(C(F)(F)F)c2)[C@H]2CCCN(CC3CCCC3)c3cc4c(cc32)OC(F)(F)O4)n1` [Example 178, (S)-(3,5-Bis-trifluoromethyl-benzyl)-(5-cyclopentylmethyl-2,2-difluoro-6,7,8,9-tetrahydro-5H-1,3-dioxa-5-aza-cyclohepta[f]inden-9-yl)-(2-methyl-2H-tetrazol-5-yl)-amine], the change in vivo at 30 mg/kg worked out at 128%.

As to `Cc1cc2c(cc1C(F)(F)F)N(CCO)CCC[C@@H]2N(Cc1cc(C(F)(F)F)cc(C(F)(F)F)c1)c1nnn(C)n1` [Example 33, (S)-2-{5-[(3,5-Bis-trifluoromethyl-benzyl)-(2-methyl-2H-tetrazol-5-yl)-amino]-7-methyl-8-trifluoromethyl-2,3,4,5-tetrahydro-benzo[b]azepin-1-yl}-ethanol], the change in vivo at 30 mg/kg worked out at 354%.

Consider `Cc1c2c(cc3c1N(C[C@H]1CC[C@H](CC(=O)O)CC1)CCC[C@@H]3N(Cc1cc(C(F)(F)F)cc(C(F)(F)F)c1)c1nnn(C)n1)COC2` [Example 165, (S)-(4-{9-[(3,5-Bis-trifluoromethyl-benzyl)-(2-methyl-2H-tetrazol-5-yl)-amino]-4-methyl-1,3,6,7,8,9-hexahydro-2-oxa-5-aza-cyclohepta[f]inden-5-ylmethyl}-cyclohexyl)-acetic acid], for which the change in vivo at 30 mg/kg turned out to be 177%.
